Results: ChEMBL document CHEMBL2396591, “Identification of potent and orally bioavailable nucleotide competing reverse transcriptase inhibitors: in vitro and in vivo optimization of a series of benzofurano[3,2-d]pyrimidin-2-one derived inhibitors” (Bioorg Med Chem Lett, 2013)
Converted amounts (≈) assume the structure as drawn.

Key:
[1] = Cmax in rat at 5 mg/kg, po; type: ADME, organism-based; set-up: dose 5 mg/kg, route oral; details: in vivo
Rattus norvegicus = assay: Clearance in rat at 2 mg/kg, iv; type: ADME, organism-based; set-up: dose 2 mg/kg, route intravenous; details: in vivo
[2] = Oral bioavailability in rat at 5 mg/kg; type: ADME, organism-based; details: in vivo
[3] = Octanol-phosphate buffer partition coefficient, log D of the compound at pH 7.4; type: physicochemical
[4] = Aqueous solubility of the compound in phosphate buffer at pH 6.8 after 24 hrs; type: physicochemical
[5] = Aqueous solubility of the compound in phosphate buffer at pH 2 after 24 hrs; type: physicochemical

Row | Structure (SMILES) | Cmax [1] | CL (Rattus norvegicus) | bioavailability [2] | logD [3] | solubility at 24 h [4] | solubility at 24 h [5]
1 | CNc1ccc(-c2nc(=O)n(CC[C@@H]3CCCO3)c3c2oc2ncc(-c4cnn(C)c4)cc23)cn1 | 140 nM | 37% | 36% |  |  | 
2 | CNc1ccc(-c2nc(=O)n(CCC3CC(C)(C)CO3)c3c2oc2ncc(-c4cnn(C)c4)cc23)cn1 (stereo not drawn) |  |  |  | 3.4 |  | 
3 | Cn1cc(-c2cnc3oc4c(-c5cscn5)nc(=O)n(CCC5CCCO5)c4c3c2)cn1 (stereo not drawn) |  |  |  | 1.5 |  | 
4 | Cn1cc(-c2cnc3oc4c(-c5ccn(C)n5)nc(=O)n(CCC5CCCO5)c4c3c2)cn1 (stereo not drawn) |  |  |  | 0.9 |  | 
5 | COc1cncc(-c2nc(=O)n(CCC3CCCO3)c3c2oc2ncc(-c4cnn(C)c4)cc23)c1 (stereo not drawn) |  |  |  | 2.5 |  | 
6 | COc1ccc(-c2nc(=O)n(CCC3CCCO3)c3c2oc2ncc(-c4cnn(C)c4)cc23)cc1 (stereo not drawn) |  |  |  | 3.5 |  | 
7 | CNc1ccc(-c2nc(=O)n(CCC3CCCO3)c3c2oc2ncc(-c4cnn(C)c4)cc23)nc1 (stereo not drawn) |  |  |  | 1.9 |  | 
8 | Cn1cc(-c2cnc3oc4c(-c5cccnc5)nc(=O)n(CCC5CCCO5)c4c3c2)cn1 (stereo not drawn) |  |  |  | 1.7 |  | 
9 | COc1cc(-c2nc(=O)n(CCC3CCCO3)c3c2oc2ncc(-c4cnn(C)c4)cc23)ccn1 (stereo not drawn) |  |  |  | 2.8 |  | 
10 | CNc1ccc(-c2nc(=O)n(CCC3CCCCO3)c3c2oc2ncc(-c4cnn(C)c4)cc23)cn1 (stereo not drawn) |  |  |  | 3.2 |  | 
11 | CNc1ccc(-c2nc(=O)n(CCC3CCOCC3)c3c2oc2ncc(-c4cnn(C)c4)cc23)cn1 |  |  |  | 2.5 |  | 
12 | CNc1ccc(-c2nc(=O)n(C(C)CC3CCCO3)c3c2oc2ncc(-c4cnn(C)c4)cc23)cn1 (stereo not drawn) |  |  |  | 3.3 |  | 
13 | CNc1ccc(-c2nc(=O)n(CCC3CCC(C)O3)c3c2oc2ncc(-c4cnn(C)c4)cc23)cn1 (stereo not drawn) |  |  |  | 3.2 |  | 
14 | CCC1(OC)CC(n2c(=O)nc(-c3ccc(NC)nc3)c3oc4ncc(-c5cnn(C)c5)cc4c32)C1 (stereo not drawn) |  |  |  | 2.9 |  | 
15 | CC[C@H]1C[C@@H](n2c(=O)nc(-c3ccc(NC)nc3)c3oc4ncc(-c5cnn(C)c5)cc4c32)CCO1 (racemic) | 1100 nM | 19% | 34% | 2.9 |  | 
16 | CC[C@H]1C[C@@H](n2c(=O)nc(-c3cnn(C)c3)c3oc4ncc(-c5cn(C)cn5)cc4c32)CCO1 (relative stereo) |  |  |  | 1.8 | 2.8 µg/mL (≈ 6.09 µM) | > 1000 µg/mL
17 | CC[C@H]1C[C@@H](n2c(=O)nc(-c3cnn(C)c3)c3oc4cnc(-c5cn(C)cn5)cc4c32)CCO1 (relative stereo) |  |  |  | 2.6 | 5.3 µg/mL (≈ 11.5 µM) | 420 µg/mL (≈ 914 µM)
18 | CC[C@H]1C[C@@H](n2c(=O)nc(-c3cnn(C)c3)c3oc4cc(C#N)c(-c5cnn(C)c5)cc4c32)CCO1 (relative stereo) |  |  |  | 2.5 | 0.2 µg/mL (≈ 0.414 µM) | 0.2 µg/mL (≈ 0.414 µM)
19 | CC[C@H]1C[C@@H](n2c(=O)nc(-c3cnn(C)c3)c3oc4cc(C#N)c(-c5cnn(C)c5)nc4c32)CCO1 (relative stereo) | 8900 nM | 4.6% | 94% | 2.7 | 2.1 µg/mL (≈ 4.33 µM) | 7.9 µg/mL (≈ 16.3 µM)
20 | CC[C@H]1C[C@@H](n2c(=O)nc(-c3cnn(C)c3)c3oc4ccc(-c5cn(C)cn5)cc4c32)CCO1 (relative stereo) | 1200 nM | 13% | 51% | 2.6 | 5 µg/mL (≈ 10.9 µM) | > 1000 µg/mL

Further lines, results first:

Row | Cmax [1] | CL (Rattus norvegicus) | bioavailability [2] | logD [3] | solubility at 24 h [4] | solubility at 24 h [5] | Structure (SMILES)
21 |  |  |  | 1.5 |  |  | Cn1cc(-c2cnc3oc4c(-c5cn(C)nn5)nc(=O)n(CCC5CCCO5)c4c3c2)cn1 (stereo not drawn)
22 |  |  |  | 1.5 |  |  | Cn1cc(-c2cnc3oc4c(-c5cnn(C)c5)nc(=O)n(CCC5CCCO5)c4c3c2)cn1 (stereo not drawn)
23 |  |  |  | 2.2 |  |  | CCn1cc(-c2nc(=O)n(CCC3CCCO3)c3c2oc2ncc(-c4cnn(C)c4)cc23)cn1 (stereo not drawn)
24 |  |  |  | 2.8 |  |  | COc1ccc(-c2nc(=O)n(CCC3CCCO3)c3c2oc2ncc(-c4cnn(C)c4)cc23)cn1 (stereo not drawn)
25 |  |  |  | 2 |  |  | CN(C)c1cnc(-c2nc(=O)n(CCC3CCCO3)c3c2oc2ncc(-c4cnn(C)c4)cc23)cn1 (stereo not drawn)
26 |  |  |  | 1.8 |  |  | Cn1cc(-c2cnc3oc4c(-c5ccncc5)nc(=O)n(CCC5CCCO5)c4c3c2)cn1 (stereo not drawn)
27 |  |  |  | 2.6 |  |  | CC[C@H]1C[C@H](n2c(=O)nc(-c3ccc(NC)nc3)c3oc4ncc(-c5cnn(C)c5)cc4c32)CCO1 (racemic)
28 |  |  |  | 2.7 |  |  | CNc1ccc(-c2nc(=O)n(CCC3CCCO3)c3c2oc2ncc(-c4cnn(C)c4)cc23)cn1 (racemic)
29 | 3100 nM | 9.4% | 69% | 2.7 | 0.6 µg/mL (≈ 1.31 µM) | > 480 µg/mL | CC[C@H]1C[C@@H](n2c(=O)nc(-c3cnn(C)c3)c3oc4ccc(-c5cn(C)cn5)nc4c32)CCO1 (relative stereo)
30 | 1600 nM | 18% | 88% | 2.2 | < 0.1 µg/mL | < 0.1 µg/mL | CC[C@H]1C[C@@H](n2c(=O)nc(-c3cnn(C)c3)c3oc4cnc(-c5cnn(C)c5)cc4c32)CCO1 (relative stereo)
31 | 460 nM | 18% | 35% | 3 | 0.2 µg/mL (≈ 0.435 µM) | 0.2 µg/mL (≈ 0.435 µM) | CC[C@H]1C[C@@H](n2c(=O)nc(-c3cnn(C)c3)c3oc4ccc(-c5cnn(C)c5)nc4c32)CCO1 (relative stereo)
32 |  |  |  | 3 | < 0.1 µg/mL | < 0.1 µg/mL | CC[C@H]1C[C@@H](n2c(=O)nc(-c3cnn(C)c3)c3oc4ccc(-c5cnn(C)c5)cc4c32)CCO1 (relative stereo)
33 |  |  |  | 2.3 | 106 µg/mL (≈ 231 µM) | > 920 µg/mL | CC[C@H]1C[C@@H](n2c(=O)nc(-c3cnn(C)c3)c3oc4ccc(-c5cncn5C)cc4c32)CCO1 (relative stereo)
